target: T1, Acetylcholinesterase (Mus musculus, UniProt P21836); test: Inhibition of mouse brain AChE; type: tissue-based
T1 sequence (P21836 whole entry): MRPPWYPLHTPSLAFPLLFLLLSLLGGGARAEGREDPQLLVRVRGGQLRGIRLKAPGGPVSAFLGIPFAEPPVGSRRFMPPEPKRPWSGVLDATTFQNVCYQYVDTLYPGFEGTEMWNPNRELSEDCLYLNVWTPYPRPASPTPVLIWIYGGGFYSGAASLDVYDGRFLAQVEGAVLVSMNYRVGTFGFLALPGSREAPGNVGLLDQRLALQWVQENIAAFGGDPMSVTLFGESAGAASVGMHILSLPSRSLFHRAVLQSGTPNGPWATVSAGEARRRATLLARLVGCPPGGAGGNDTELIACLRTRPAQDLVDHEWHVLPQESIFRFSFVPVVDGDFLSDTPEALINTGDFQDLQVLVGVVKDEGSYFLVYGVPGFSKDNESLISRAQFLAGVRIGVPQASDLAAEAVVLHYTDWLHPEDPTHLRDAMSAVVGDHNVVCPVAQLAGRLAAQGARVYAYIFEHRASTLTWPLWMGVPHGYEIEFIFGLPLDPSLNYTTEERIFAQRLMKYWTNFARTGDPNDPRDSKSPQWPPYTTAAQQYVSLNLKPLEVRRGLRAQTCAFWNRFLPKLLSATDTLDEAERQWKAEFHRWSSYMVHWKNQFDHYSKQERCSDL

Compound	IC50
CC1(C)O[C@H]2O[C@H](CNCCCCCCCCCCCNc3c4c(nc5ccccc35)CCCC4)[C@H](O)[C@H]2O1	2.2 nM
CC1(C)O[C@H]2O[C@H](CNCCCCCCCCCCNc3c4c(nc5ccccc35)CCCC4)[C@H](O)[C@H]2O1	10 nM
CO[C@@H]1O[C@H](CNCCCCCCCCCNc2c3c(nc4ccccc24)CCCC3)[C@H]2OC(C)(C)O[C@@H]12	90 nM
CC1(C)O[C@H]2O[C@H](CNCCCCCCCCCNc3c4c(nc5ccccc35)CCCC4)[C@H](O)[C@H]2O1	5.1 nM
CC1(C)O[C@H]2O[C@H](NCCCCCCCNc3c4c(nc5ccccc35)CCCC4)[C@H](O)[C@H]2O1	8.7 nM
CO[C@@H]1O[C@H](CNCCCCCCCCCCNc2c3c(nc4ccccc24)CCCC3)[C@H]2OC(C)(C)O[C@@H]12	65 nM
CC1(C)O[C@H]2[C@@H](O1)[C@@H](CNCCCCCCCCCNc1c3c(nc4ccccc14)CCCC3)O[C@@H]1OC(C)(C)O[C@@H]12	4.8 nM
CC1(C)O[C@H]2[C@@H](O1)[C@@H](CNCCCCCCCCCCNc1c3c(nc4ccccc14)CCCC3)O[C@@H]1OC(C)(C)O[C@@H]12	7.6 nM
CC1(C)O[C@H]2O[C@H](CNCCCCCCCCNc3c4c(nc5ccccc35)CCCC4)[C@H](O)[C@H]2O1	84 nM

target: T2, Acetylcholinesterase (Homo sapiens, UniProt P22303)
T2 sequence (P22303 whole entry): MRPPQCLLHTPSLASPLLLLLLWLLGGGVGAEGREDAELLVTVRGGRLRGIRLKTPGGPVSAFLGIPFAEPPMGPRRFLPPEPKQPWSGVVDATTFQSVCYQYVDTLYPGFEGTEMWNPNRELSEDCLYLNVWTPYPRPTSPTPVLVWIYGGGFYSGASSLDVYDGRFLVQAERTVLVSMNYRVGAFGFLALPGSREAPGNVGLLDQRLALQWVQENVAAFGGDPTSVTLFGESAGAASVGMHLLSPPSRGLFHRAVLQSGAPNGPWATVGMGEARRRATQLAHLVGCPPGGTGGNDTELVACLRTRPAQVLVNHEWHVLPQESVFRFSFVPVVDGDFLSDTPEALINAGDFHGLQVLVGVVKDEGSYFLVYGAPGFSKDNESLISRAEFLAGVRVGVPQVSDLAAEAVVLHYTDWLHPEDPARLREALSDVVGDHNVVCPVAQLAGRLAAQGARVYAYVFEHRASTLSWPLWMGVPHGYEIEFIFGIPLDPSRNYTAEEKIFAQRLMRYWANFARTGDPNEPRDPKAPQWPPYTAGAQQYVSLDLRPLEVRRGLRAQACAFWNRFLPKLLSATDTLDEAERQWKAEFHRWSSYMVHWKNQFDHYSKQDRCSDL
Description: Binding affinity to AChE (unknown origin) assessed as inhibition constant incubated for 30 mins by ellman's method

Compound	Ki
CC(=O)Nc1nc(NCc2ccccc2)c2ncn(C3O[C@H](CC(=O)NCc4ccccc4)[C@H](OC(C)=O)[C@H]3OC(C)=O)c2n1 (some centres undefined)	50500 nM
CC(=O)Nc1nc(Cl)c2ncn(C3O[C@H](CC(=O)NCc4ccccc4)[C@H](OC(C)=O)[C@H]3OC(C)=O)c2n1 (some centres undefined)	14800 nM
CC(=O)Nc1nc(Cl)c2c(ncn2C2O[C@H](C(=O)NCc3ccccc3)[C@@H](OC(C)=O)[C@@H](OC(C)=O)[C@H]2OC(C)=O)n1 (some centres undefined)	18700 nM
CC(=O)Nc1nc(Cl)c2ncn(C3O[C@H](C(=O)NCc4ccccc4)[C@@H](OC(C)=O)[C@@H](OC(C)=O)[C@H]3OC(C)=O)c2n1 (some centres undefined)	31000 nM
CC(=O)Nc1nc(Cl)c2c(ncn2C2O[C@H](C(=O)O)[C@@H](OC(C)=O)[C@@H](OC(C)=O)[C@H]2OC(C)=O)n1 (some centres undefined)	37900 nM
CC(=O)Nc1nc(Cl)c2ncn(C3O[C@H]4[C@H](OC(=O)[C@@H]4O)[C@H]3OC(C)=O)c2n1 (some centres undefined)	23700 nM
CC(=O)Nc1nc(Cl)c2ncn(C3O[C@H](C(=O)O)[C@@H](OC(C)=O)[C@@H](OC(C)=O)[C@H]3OC(C)=O)c2n1 (some centres undefined)	26900 nM

target: T3, Cholinesterase (Homo sapiens, UniProt P06276); test: Inhibition of BuChE (unknown origin) at 50 uM incubated for 20 mins by absorbance based analysis relative to control
T3 sequence (P06276 whole entry): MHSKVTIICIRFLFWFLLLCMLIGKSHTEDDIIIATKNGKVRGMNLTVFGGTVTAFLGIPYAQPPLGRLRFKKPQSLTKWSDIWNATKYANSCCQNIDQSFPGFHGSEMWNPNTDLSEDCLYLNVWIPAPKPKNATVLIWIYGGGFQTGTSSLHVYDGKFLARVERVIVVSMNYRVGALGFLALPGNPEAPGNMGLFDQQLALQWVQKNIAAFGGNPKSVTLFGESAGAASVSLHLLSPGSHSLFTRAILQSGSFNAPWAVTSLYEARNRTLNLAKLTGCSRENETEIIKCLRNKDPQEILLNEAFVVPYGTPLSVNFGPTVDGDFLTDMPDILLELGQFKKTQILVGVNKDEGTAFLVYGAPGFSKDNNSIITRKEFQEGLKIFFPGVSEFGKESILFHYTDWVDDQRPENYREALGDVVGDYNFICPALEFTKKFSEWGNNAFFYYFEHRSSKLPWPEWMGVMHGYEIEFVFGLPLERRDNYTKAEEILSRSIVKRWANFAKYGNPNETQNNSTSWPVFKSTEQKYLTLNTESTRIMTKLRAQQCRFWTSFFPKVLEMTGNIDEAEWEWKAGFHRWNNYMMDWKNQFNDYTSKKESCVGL

Compound	inhibition
CCCCCCCCO[C@H]1[C@H](OC(C)=O)[C@@H](Cn2c(=O)c3c(ncn3C)n(C)c2=O)OC(OC(C)=O)[C@@H]1OC(C)=O (some centres undefined)	75.1%
CCCCCCCCO[C@H]1[C@H](OC(C)=O)[C@@H](Cn2c(=O)c3c(ncn3C)n(C)c2=O)OC(NS(C)(=O)=O)[C@@H]1OC(C)=O (some centres undefined)	52.6%

target: Acetylcholinesterase (Electrophorus electricus, UniProt O42275)
Sequence (O42275 whole entry): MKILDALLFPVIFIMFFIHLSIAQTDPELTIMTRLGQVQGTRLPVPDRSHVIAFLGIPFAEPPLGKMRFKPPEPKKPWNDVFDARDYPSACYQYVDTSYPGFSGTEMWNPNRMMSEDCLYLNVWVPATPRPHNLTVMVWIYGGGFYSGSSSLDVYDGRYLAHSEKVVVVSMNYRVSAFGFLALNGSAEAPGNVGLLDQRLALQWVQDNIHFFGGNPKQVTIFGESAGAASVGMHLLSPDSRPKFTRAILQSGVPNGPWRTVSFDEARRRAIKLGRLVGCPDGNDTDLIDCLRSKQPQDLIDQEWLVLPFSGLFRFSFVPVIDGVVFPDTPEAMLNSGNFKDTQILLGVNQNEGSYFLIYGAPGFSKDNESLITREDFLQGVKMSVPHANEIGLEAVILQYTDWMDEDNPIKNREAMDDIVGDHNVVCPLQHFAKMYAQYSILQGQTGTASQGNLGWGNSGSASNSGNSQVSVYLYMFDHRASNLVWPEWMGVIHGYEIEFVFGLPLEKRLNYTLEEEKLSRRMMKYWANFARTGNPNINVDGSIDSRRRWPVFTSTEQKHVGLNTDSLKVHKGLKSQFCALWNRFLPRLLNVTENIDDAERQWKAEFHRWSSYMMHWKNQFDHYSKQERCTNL
Description: Binding affinity to electrical eel AChE assessed as inhibition constant incubated for 20 mins by absorbance based analysis

Compound	Ki
CC(=O)O[C@H]1C(NS(C)(=O)=O)O[C@H](Cn2c(=O)c3c(ncn3C)n(C)c2=O)[C@@H]1OCc1ccccc1 (some centres undefined)	6610 nM
CCCCCCCCCCCCNC(=O)[C@@H](OCc1ccccc1)[C@H]1O[C@@H](N=[N+]=[N-])[C@H](OC(C)=O)[C@H]1OCc1ccccc1	1730 nM
CCCCCCCCCCCCNC(=O)[C@@H](OCc1ccccc1)[C@H]1OC(OC(C)=O)[C@H](OC(C)=O)[C@H]1OC(C)=O (some centres undefined)	> 100000 nM
CO[C@H]1O[C@H](Cn2c(=O)c3c(ncn3C)n(C)c2=O)[C@@H](OC(C)=O)[C@H](OC(C)=O)[C@H]1OC(C)=O	4300 nM
CCCCCCCCCCCCNC(=O)[C@@H](OCc1ccccc1)[C@H]1OC(N=[N+]=[N-])[C@H](OC(C)=O)[C@H]1OC(C)=O (some centres undefined)	> 100000 nM
CCCCCCCCCCCCNC(=O)[C@@H](OCc1ccccc1)[C@H]1O[C@@H](n2cc(-c3ccccc3)nn2)[C@H](OC(C)=O)[C@H]1OCc1ccccc1	3530 nM

target: T2, Acetylcholinesterase; test: Inhibition of AChE (unknown origin) at 50 uM incubated for 20 mins by absorbance based analysis relative to control

Compound	inhibition
CCCCCCCCO[C@H]1[C@H](OC(C)=O)[C@@H](Cn2c(=O)c3c(ncn3C)n(C)c2=O)OC(OC(C)=O)[C@@H]1OC(C)=O (some centres undefined)	66.5%
CCCCCCCCO[C@H]1[C@H](OC(C)=O)[C@@H](Cn2c(=O)c3c(ncn3C)n(C)c2=O)OC(NS(C)(=O)=O)[C@@H]1OC(C)=O (some centres undefined)	28.3%

target: T3, Cholinesterase; test: Binding affinity to BuChE (unknown origin) assessed as inhibition constant incubated for 20 mins by absorbance based analysis

Compound	Ki
CCCCCCCCO[C@H]1[C@H](OC(C)=O)[C@@H](Cn2c(=O)c3c(ncn3C)n(C)c2=O)OC(OC(C)=O)[C@@H]1OC(C)=O (some centres undefined)	5400 nM

target: T3, Cholinesterase

Compound	Ki
CO[C@H]1O[C@H](Cn2c(=O)c3c(ncn3C)n(C)c2=O)[C@@H](OC(C)=O)[C@H](OC(C)=O)[C@H]1OC(C)=O	4000 nM

target: T3, Cholinesterase; remark: another data set of the same source
Description: Binding affinity to BuChE (unknown origin) assessed as inhibition constant incubated for 30 mins by ellman's method

Compound	Ki
CC(=O)Nc1nc(NCc2ccccc2)c2ncn(C3O[C@H](CC(=O)NCc4ccccc4)[C@H](OC(C)=O)[C@H]3OC(C)=O)c2n1 (some centres undefined)	> 100000 nM
CC(=O)Nc1nc(Cl)c2ncn(C3O[C@H](CC(=O)NCc4ccccc4)[C@H](OC(C)=O)[C@H]3OC(C)=O)c2n1 (some centres undefined)	> 100000 nM
CC(=O)Nc1nc(Cl)c2c(ncn2C2O[C@H](C(=O)NCc3ccccc3)[C@@H](OC(C)=O)[C@@H](OC(C)=O)[C@H]2OC(C)=O)n1 (some centres undefined)	> 100000 nM
CC(=O)Nc1nc(Cl)c2ncn(C3O[C@H](C(=O)NCc4ccccc4)[C@@H](OC(C)=O)[C@@H](OC(C)=O)[C@H]3OC(C)=O)c2n1 (some centres undefined)	> 100000 nM
CC(=O)Nc1nc(Cl)c2c(ncn2C2O[C@H](C(=O)O)[C@@H](OC(C)=O)[C@@H](OC(C)=O)[C@H]2OC(C)=O)n1 (some centres undefined)	> 100000 nM
CC(=O)Nc1nc(Cl)c2ncn(C3O[C@H]4[C@H](OC(=O)[C@@H]4O)[C@H]3OC(C)=O)c2n1 (some centres undefined)	> 100000 nM
CC(=O)Nc1nc(Cl)c2ncn(C3O[C@H](C(=O)O)[C@@H](OC(C)=O)[C@@H](OC(C)=O)[C@H]3OC(C)=O)c2n1 (some centres undefined)	> 100000 nM

target: Cholinesterase (Mus musculus, UniProt Q03311); test: Inhibition of mouse serum BuChE; type: cell-free
Sequence (Q03311 whole entry): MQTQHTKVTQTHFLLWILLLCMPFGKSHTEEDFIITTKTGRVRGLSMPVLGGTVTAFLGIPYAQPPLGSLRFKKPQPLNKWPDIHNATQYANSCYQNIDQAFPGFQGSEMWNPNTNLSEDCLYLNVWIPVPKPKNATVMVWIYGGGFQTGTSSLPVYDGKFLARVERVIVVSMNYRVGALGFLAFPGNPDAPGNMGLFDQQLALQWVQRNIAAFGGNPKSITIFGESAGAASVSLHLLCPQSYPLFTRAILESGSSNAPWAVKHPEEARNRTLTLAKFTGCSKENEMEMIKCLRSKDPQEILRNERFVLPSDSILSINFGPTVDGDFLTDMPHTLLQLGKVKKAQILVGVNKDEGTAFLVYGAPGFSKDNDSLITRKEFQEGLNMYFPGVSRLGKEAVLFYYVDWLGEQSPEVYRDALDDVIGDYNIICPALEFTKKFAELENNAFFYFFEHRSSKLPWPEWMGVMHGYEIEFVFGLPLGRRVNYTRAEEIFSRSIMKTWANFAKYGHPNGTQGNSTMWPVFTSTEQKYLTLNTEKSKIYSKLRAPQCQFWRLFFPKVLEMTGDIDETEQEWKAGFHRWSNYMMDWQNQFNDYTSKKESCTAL

Compound	IC50
CC1(C)O[C@H]2O[C@H](CNCCCCCCCCCCCNc3c4c(nc5ccccc35)CCCC4)[C@H](O)[C@H]2O1	4.9 nM
CC1(C)O[C@H]2O[C@H](CNCCCCCCCCCCNc3c4c(nc5ccccc35)CCCC4)[C@H](O)[C@H]2O1	31 nM
CO[C@@H]1O[C@H](CNCCCCCCCCCNc2c3c(nc4ccccc24)CCCC3)[C@H]2OC(C)(C)O[C@@H]12	37 nM
CC1(C)O[C@H]2O[C@H](CNCCCCCCCCCNc3c4c(nc5ccccc35)CCCC4)[C@H](O)[C@H]2O1	25 nM
CC1(C)O[C@H]2O[C@H](NCCCCCCCNc3c4c(nc5ccccc35)CCCC4)[C@H](O)[C@H]2O1	27 nM
CO[C@@H]1O[C@H](CNCCCCCCCCCCNc2c3c(nc4ccccc24)CCCC3)[C@H]2OC(C)(C)O[C@@H]12	64 nM
CC1(C)O[C@H]2[C@@H](O1)[C@@H](CNCCCCCCCCCNc1c3c(nc4ccccc14)CCCC3)O[C@@H]1OC(C)(C)O[C@@H]12	37 nM
CC1(C)O[C@H]2[C@@H](O1)[C@@H](CNCCCCCCCCCCNc1c3c(nc4ccccc14)CCCC3)O[C@@H]1OC(C)(C)O[C@@H]12	26 nM
CC1(C)O[C@H]2O[C@H](CNCCCCCCCCNc3c4c(nc5ccccc35)CCCC4)[C@H](O)[C@H]2O1	11 nM

Source: ChEMBL document CHEMBL5233206, “An overview on the synthesis of carbohydrate-based molecules with biological activity related to neurodegenerative diseases” (RSC Med Chem, 2021)
